Experimental data from patent publication US20060160897A1, “Topical Use of Valproic Acid for the Prevention or Treatment of Skin Disorders” (priority 2003, published 2006).

Assays:
[1] = In vitro skin permeation assay, Franz type diffusion cell with SCE membranes; format: in vitro ADME, human; conditions: sodium valproate 3% (w/w) in Sepigel gel, SCE membranes 0.75 cm^2, 10 h, 35° C.; FIG. 6
Method: The resulting gel was stored at room temperature for 24 h prior to use.
In vitro skin permeation assay: The analyses were carried out using a Franz type glass diffusion cell (LGA, Berkeley, Calif., USA) assembled with membranes carrying stratum corneum and epidermis (SCE). Adult human skin samples (mean age 29±5 years) were obtained from abdominal reduction surgery. Subcutaneous fat was trimmed and the skin samples were immersed in distilled water at 60° C. for 1 min; then stratum corneum and epidermis (SCE) were peeled off The SCE samples were dried at room temperature in a desiccator maintained at approximately 25% relative humidity. […] Skin barrier integrity of the SCE membranes used in this protocol was assessed by determining their tritiated water permeability coefficient (Kp). […] All samples were analyzed for sodium valproate contents by means of an HPLC with spectrofluorimetric detection. The results were expressed as total amount permeated (mg).
Quantitative determination of Sodium Valproate: To determine sodium valproate, samples were derivatized with 4-bromomethyl-7-methoxycoumarin (BMMC). […]
Adult human skin samples (skin surface area was 0.75 cm^2) were prepared as described in the methods section. […] All samples were analyzed for sodium valproate contents by means of an HPLC with spectrofluorimetric detection. The results were expressed as total amount permeated (mg).

[2] = system: IL-2 and TNF-α; assay: ELISA of IL-2 and TNF-α, blood cells of VPA treated patient stimulated with CD3/CD28; format: in vivo, human; conditions: CD3/CD28 stimulated 24 hours
Method: The cells were either left unstimulated or stimulated with CD3 and CD28 antibodies. After 24 hours at 37° C. the supernatant was collected and the secretion of IL-2 and TNF-α was quantified by ELISA (R&D Systems) (FIGS. 19A and B).

CCCC(CCC)C(=O)O [VPA, 2-propyl-pentanoic acid]
permeation of human skin (total amount permeated) [1]: permeates the skin in a time dependent manner
IL-2 in culture supernatant (ELISA) [2]: modulates the expression
TNF-α in culture supernatant (ELISA) [2]: modulates the expression
